How the values were obtained:
[1] = Bleaching of dye solution during a typical PCR protocol on a real-time PCR instrument; format: physicochemical; conditions: excitation for fluorescence measurement and repeated temperature changes between 55 and 95° C., LIGHTCYCLER 480
genomic DNA = assay: Light stability: fluorescence of a mixture of dye and genomic DNA during continuous light exposure; format: physicochemical; conditions: for fluorescence during continuous light exposure: dye + genomic DNA
Protocol: The light stability of R27, which is representative for the nine described dyes, was compared to established dyes already used for such applications. The fluorescence of a mixture of the respective dye and genomic DNA was measured during continuous light exposure.

Row | SMILES | bleaching of the dye [1] | fluorescence during continuous light exposure (genomic DNA; light exposure 0 min) | fluorescence during continuous light exposure (genomic DNA; light exposure 10 min) | fluorescence during continuous light exposure (genomic DNA; light exposure 30 min) | fluorescence during continuous light exposure (genomic DNA; light exposure 60 min) | fluorescence during continuous light exposure (genomic DNA; light exposure 180 min) | fluorescence during continuous light exposure (genomic DNA; light exposure 300 min) | light stability compared to established dyes (genomic DNA; versus SYBR Green I and LC Green Plus)
1 | COc1cc2c(cc1OC)N(C)C(CCCC[N+](C)(C)C)=N/C2=C\c1sc2ccccc2[n+]1C.[I-].[I-] [R 27] | no recognizable bleaching | 100% | 99% | 98% | 99% | 97% | 96% | distinctly higher
2 | CCCN(CCCN(C)C)c1cc(C=C2Sc3ccccc3N2C)c2ccccc2[n+]1-c1ccccc1 [SYBR Green I, [2-[N-(-3-dimethylaminopropyl)-N-propylamino]-4-[2,3-dihydro-3-methyl-(benzo-1,3-thiazol-2-yl)-methylidene]-1-phenyl-quinolinium]+, reference compound] | – | 100% | 87% | 77% | 70% | 40% | 24% | –

Reference: patent US8058431B2, “Fluorescent double stranded DNA binding dyes” (Roche Diagnostics Operations, Inc., priority 2006, dated 2011)
